Laboratory results: publication PMC9223397 (International Journal of Molecular Sciences, 2022)

Columns and labels:
Sig-1R/BiP interaction = assay: BiP/Sig-1R association assay in CHO cells; type: cell-based; conditions: for Effect on Sig-1R/BiP association: 10 µM
Method: The interaction between Sig-1R and the chaperone BiP was used to identify the functional nature (agonistic or antagonistic) of compounds [38]. The assay was conducted by Amylgen according to their standard assay protocol (https://www.amylgen.fr/ (accessed on 15 May 2022)). Each assay condition consisted of six determinations. In brief, CHO cells were treated with compounds at 37 °C for 30 min and lysed. CHO cell lysates were immunoprecipitated with Sig-1R antibody, and coimmunoprecipitated BiP was detected by ELISA assay. In each experiment, untreated control cell lysates were used to assess the maximal level of Sig1R-BiP interaction and represented 100% of Sig1R-BiP association. Cells treated with compounds at the corresponding concentrations were equally processed, and the level of Sig1R-BiP association in those conditions was referred to as the control condition. In this experimental setting, Sig1R agonists were able to reduce the Sig1R-BiP interaction, while antagonists were not.

[1] = Plasma levels, SOD1G93A model; type: in vivo, Transgenic SOD1^G93A male mouse; conditions: SOD1G93A transgenic, plasma, ip; SOD1G93A male mouse, 0.25 mg/kg i.p.; 30 min post-administration; data obtained in a separate study
Method: (§1) The compounds were dissolved in 0.5% hydroxypropyl-methylcellulose (HPMC; H7509, Sigma-Aldrich) in distilled water and were administered by intraperitoneal (i.p.) route twice daily (bid) in a volume of 10 mL/kg. Administrations were given from 30 min after rhizotomy surgery until 42 days post-injury (dpi), the end of the study; in the SOD1^G93A study, treatments were given from 8 to 16 weeks of age (see Figure 6).
Plasma levels were determined in the two in vivo models evaluated to be able to associate the pharmacological activity with the levels present in plasma. In the rhizotomy model, the plasma levels were evaluated at Day 42 after surgery and at 15 min after compound administration (0.5 and 5 mg/kg i.p.). […] Plasma samples were assayed by ultraperformance liquid chromatography−triple quadrupole mass spectrometry (UPLC-MS/MS) after plasma protein precipitation. Results are expressed as mean ± standard deviation (n = 8).

SOD1^G93A mice = assay: Rotarod test in SOD1G93A mice; type: in vivo, SOD1^G93A male mice; conditions: 0.25 mg/kg i.p.; at 15 and 16 weeks
Method: as §1
A rotarod test was performed to evaluate motor coordination and strength. The time that each animal remained on the rotating rod at a speed of 14 rpm was measured for five trials per mouse, and the longest time until falling was recorded; 180 s was chosen as the cut-off time. The test was performed weekly from 8 to 16 weeks of age in SOD1^G93A and WT mice, and disease onset was determined as the first week when each mouse was unable to keep walking for 180 s on the rod.

[2] = system: spinal MNs after L4-L5 rhizotomy; assay: MN survival after L4-L5 rhizotomy (cresyl violet MN counts); type: in vivo, female mice (B6SJL); conditions: 0.25 mg/kg bid i.p., 42 dpi; positive control
Method: (§2) Surgeries were performed on three-month-old mice under anesthesia with ketamine-xylazine (100–10 mg/kg i.p.) as previously described. Briefly, the L4-L5 spinal roots were exposed by a small laminectomy on the right side. Afterwards, roots were cut at the exit from the intervertebral foramina, and the root stumps were separated. Mice were cared for until recovery in a warm environment. Analgesia was provided with buprenorphine (0.1 mg/kg) for the next 48 h post-surgery.
as §1
(§3) At the end of follow-up (42 dpi for rhizotomy and 16 weeks of age for ALS mice; Figure 6), the animals were deeply anesthetized and transcardially perfused with 4% PFA in PBS. The lumbar spinal cord and the TA muscle were harvested and cryopreserved in 30% sucrose solution in PB. The spinal cords were serially cut in 20 µm thick transverse sections with a cryostat (Leica, Mannheim, Germany). For MN counting, L4-L5 spinal cord sections separated 100 µm were stained for 3 h with an acidified solution of 3.1 mM cresyl violet. MNs were identified by their localization in the lateral ventral horn of the spinal cord and were counted following strict size and morphological criteria: only MNs with a diameter larger than 20 µm, polygonal shape, and prominent nucleoli were counted.

[3] = Body weight in SOD1G93A mice; type: in vivo, SOD1^G93A male mice; conditions: 0.25 mg/kg i.p., 8 to 16 weeks of age
Method: as §1

[4] = system: microglia and astrocytes in ventral horn of SOD1^G93A mice; assay: Glial reactivity in SOD1G93A mice (Iba1, GFAP); type: in vivo, SOD1^G93A male mice; conditions: 0.25 mg/kg i.p.; 16 weeks of age
Method: as §1
(§4) For glial cells immunofluorescence, other lumbar spinal cord sections were blocked with 10% normal donkey serum and incubated overnight with primary antibodies rabbit anti-Iba1 (1:500; 019–19741, Wako) and rat anti-GFAP (1:500; 13-0300, Invitrogen) to label microglia and astroglia, respectively. After several washes, sections were incubated with secondary antibodies Alexa Fluor 488-donkey anti-rat (1:500; A-21208, Invitrogen) or Alexa Fluor 594 donkey anti-rabbit (1:500; A21207, Invitrogen). Finally, sides were mounted with Fluoromount-G. To quantify glial cell reactivity, images of the ventral horn were acquired with an epifluorescence microscope (Nikon Eclipse Ni, Japan) using the same conditions for each analyzed marker. After defining a threshold for background correction, the integrated density of GFAP or Iba1 labeling was measured using ImageJ software.

[5] = Plasma levels, spinal nerve injury (rhizotomy) model; type: in vivo, female mouse; conditions: plasma, ip; spinal nerve injury female mouse, 0.25 mg/kg i.p.; 30 min post-administration; data obtained in a separate study
Method: as §1
Plasma levels were determined in the two in vivo models evaluated to be able to associate the pharmacological activity with the levels present in plasma. […] In the SOD1^G93A model, the plasma levels were evaluated at 16 weeks of age (after 8 weeks of administration) and 15 min after compound administration (5 mg/kg i.p.). Plasma samples were assayed by ultraperformance liquid chromatography−triple quadrupole mass spectrometry (UPLC-MS/MS) after plasma protein precipitation. Results are expressed as mean ± standard deviation (n = 8).

[6] = system: spinal α-MNs in SOD1^G93A mice; assay: Spinal MN counts in SOD1G93A mice; type: in vivo, SOD1^G93A male mice; conditions: 0.25 mg/kg i.p.; 16 weeks of age
Method: as §1, §3

[7] = molecular target: T1, human Sigma-2 receptor (Sig-2R) (Homo sapiens, UniProt Q5BJF2); assay: Human Sig-2R radioligand assay; type: binding; conditions: [3H]-DTG, transfected HEK-293 Sig-1R knockout membranes
T1 construct: expressed in transfected cells; host or cells: HEK-293 Sig-1R knockout (membranes)
T1 sequence (Q5BJF2 whole entry): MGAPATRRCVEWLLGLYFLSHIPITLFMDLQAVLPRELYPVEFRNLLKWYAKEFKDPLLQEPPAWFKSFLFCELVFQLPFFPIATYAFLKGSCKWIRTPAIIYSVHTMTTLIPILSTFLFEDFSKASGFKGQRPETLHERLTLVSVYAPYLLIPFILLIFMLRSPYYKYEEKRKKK
Method: The binding properties of the compounds to the human Sig-2R were similarly studied in transfected HEK-293 Sig-1R knockout membranes using [^3H]-1,3-di-o-tolylguanidine (DTG) (NET-986, PerkinElmer; Boston, USA) as the radioligand. The assay was carried out with 15 μg of membrane suspension, [^3H]-1,3-di-o-tolylguanidine (DTG) (10 nM, 100 μL), in either the absence or presence of either buffer or 10 μM haloperidol for total (TB) and nonspecific (NSB) binding, respectively, or the corresponding compound concentration. Binding buffer contained Tris-HCl (50 mM, pH 7.4). Plates were incubated at 25 °C for 120 min. After incubation, the reaction mix was transferred to MultiScreen HTS, FC plates (Merck Millipore) presoaked in 0.5% polyethyleneimine, and filtered. Following that, plates were washed with ice-cold Tris-HCl (10 mM, pH 8). Filters were dried and counted, and data were processed as above.

[8] = system: NMJs of hindlimb muscle in SOD1^G93A mice; assay: Neuromuscular junction innervation in SOD1G93A mice; type: in vivo, SOD1^G93A male mice; conditions: 0.25 mg/kg i.p.; 16 weeks of age
Method: as §1
For neuromuscular junction (NMJ) labeling, 50 µm thick longitudinal sections of TA muscle were serially cut. Sections were blocked with 5% normal donkey serum and incubated with primary antibodies rabbit anti-synaptophysin (1:500; Ab32127, Abcam, Cambridge, UK) and chicken anti-neurofilament 200 (NF200, 1:1000; AB5539, Millipore, Burlington, MS, USA) 48 h at 4 °C. After washes, sections were incubated overnight with secondary antibody Alexa Fluor 594-donkey anti-rabbit and anti-chicken (1:200; A11042-A21207, Invitrogen, USA) and Alexa 488 conjugated α-bungarotoxin (1:500; B13422, Life Technologies, Carlsbad, CA USA). Confocal images were captured (LSM 700 Axio Observer, Carl Zeiss, Jena, Germany, 40xOil/z0.5), and the maximum projection images generated from 1.3 µm z projections. The proportion of innervated NMJs was calculated by classifying each endplate as occupied (when presynaptic terminals overlie the endplate) or vacant (no presynaptic label in contact with the endplate). At least 60 endplates were analyzed per muscle.

[9] = system: microglia and astrocytes in ventral horn after rhizotomy; assay: Glial reactivity after L4-L5 rhizotomy (Iba1, GFAP immunolabeling); type: in vivo, female mice (B6SJL); conditions: 0.25 mg/kg bid i.p., 42 dpi
Method: as §2, §1, §4

[10] = system: NSC34 SOD1^G93A-induced cell death; parameters: method as in PMID 24334165; conditions: more significant effect at 10 μM; cited from earlier work

With `CCCN(CCC)CCc1ccc(OC)c(OCCc2ccccc2)c1` [NE100, reference compound] the “Effect on Sig-1R/BiP association” value (Sig-1R/BiP interaction) was “antagonist effect” and the “Reversion of the effect of PRE-084 on Sig-1R/BiP association” value (Sig-1R/BiP interaction; compound 10 µM, PRE-084 10 µM) was “able to revert the effect of PRE-084”.

With `O=C(OCCN1CCOCC1)C1(c2ccccc2)CCCCC1` [PRE-084, 2-(4-Morpholinethyl)1-Phenylcyclohexanecarboxylate, reference compound] the concentration at 30 min [1] was 2.6 ng/mL, the “Rotarod performance vs vehicle” value (SOD1^G93A mice) was “significantly improved the functional outcome” and the “Effect on Sig-1R/BiP association” value (Sig-1R/BiP interaction) was “Agonist effect”. The “Number of spinal MNs ± SEM, ipsilateral ventral horn” value [2] was 8.9 ± 0.4, the “Body weight vs vehicle group” value [3] was “did not cause differences in body weight” and the “Astrocyte activation (GFAP)” value [4] was “significant decrease in astrocyte activation”. The concentration at 30 min [5] was 3.6 ng/mL, the “Number of surviving spinal α-MNs” value [6] was 12.4 ± 0.9 MNs per section and the IC50 [7] was over 10 µM. The “Proportion of innervated endplates (NMJ) vs untreated” value [8] was “significantly increased the proportion of innervated endplates”, the “GFAP integrated density ± SEM (astroglial reactivity)” value [9] was 6 × 10^4 ± 0.9 × 10^4 and the “Iba1 integrated density ± SEM (microglial reactivity)” value [9] was 15 × 10^4 ± 1.4 × 10^4.

For `COc1ccc(CCN2CCN(CCCc3ccccc3)CC2)cc1OC` [SA4503], the “NSC34 SOD1G93A-induced cell death” value [10] is listed as “reduced NSC34 SOD1^G93A-induced cell death in a concentration-dependent manner”.
